Test results from paper PMC9855371, “Antiparasitic Activity of Fluorophenyl-Substituted Pyrimido[1,2-a]benzimidazoles” (Biomedicines, 2023).

Assays:
Vero cells = experiment: In vitro cytotoxicity MTT assay in Vero cells; format: cell-based; conditions: Chlorocebus sabaeus; after 72 h; Vero cells (African green monkey kidney epithelial cells); means of n = 3, SD ± 15%
Procedure: MTT assays were carried out for a cytotoxicity evaluation of the test compounds. Briefly, Vero cells were cultured in 96-well plates (5 × 10^3 cells/well/200 µL) for 24 h in RPMI 1640 medium with 10% FBS and 5% CO2, at 37 °C. Cells were washed with PBS, followed by treatment with test compounds for 72 h at varying concentrations (50, 25, 12.5, 6.25, 3.13, 1.65, and 0.75 µg mL^−1) in 10% FBS medium. Cells treated solely with medium in 2% FBS were used as a negative control. The supernatant was discarded, 50 µL RPMI 1640 medium containing 14 µL MTT (5 mg mL^−1) was added, and the cells were incubated for 4 h. The supernatant was removed again, and 150 µL DMSO was added in order to dissolve the formed formazan. A FLUOstar OPTIMA spectrophotometer was applied for colorimetric analysis (λ = 540 nm). The cytotoxicity was expressed by IC50 values (concentration which caused a 50% reduction in viable cells). IC50 values were calculated from three independent experiments.

[1] = test system: Leishmania major promastigotes; experiment: Leishmania major promastigote viability, MTT assay; format: cell-based; conditions: Leishmania major promastigotes after 72 h, means of n = 3, SD ± 15%
[2] = test system: Leishmania major amastigotes; experiment: Leishmania major amastigotes in peritoneal macrophages, percentage of infected macrophages (Giemsa); format: cell-based; conditions: Leishmania major amastigotes after 72 h, means of n = 3, SD ± 15%
Toxoplasma gondii = Toxoplasma gondii tachyzoite (RH strain) growth in infected Vero cells, infection index; format: cell-based; conditions: after 72 h, means of n = 3, SD ± 15%, read-out: EC50 (T. gondii)
Procedure: Serial passages of cells of the Vero cell line (ATCC® CCL81™, Manassas, VA, USA) were applied for the cultivation of T. gondii tachyzoites of the RH strain (a gift from Dr. Saeed El-Ashram, State Key Laboratory for Agrobiotechnology, China Agricultural University, Beijing, China). Vero cells were cultured by using complete RPMI 1640 medium with heat-inactivated 10% FBS in a humidified 5% CO2 atmosphere, at 37 °C. The 96-well plates (5 × 10^3 cells/well in 200 µL RPMI 1640 medium) were used for the cultivation of the Vero cells and then incubated, at 37 °C, and 5% CO2 for one day, followed by removal of medium and washing the cells with PBS. Then, RPMI 1640 medium containing 2% FBS and T. gondii tachyzoites (RH strain) was given to the cells at a ratio of 5 (parasite):1 (Vero cells). After incubation, at 37 °C, and 5% CO2 for 5 h, cells were washed with PBS and then treated as described below.
Control: RPMI 1640 medium containing DMSO (1%)
Experimental: Medium + compounds (dissolved in DMSO) (50, 25, 12.5, 6.25, 3.13, 1.65, and 0.75 µg mL^−1).
After incubation, at 37 °C, and 5% CO2 for 72 h, the cells were washed with PBS, fixed in 10% formalin and stained with 1% toluidine blue. Examination of the cells and determination of the infection index (number of cells infected from 200 cells tested) of T. gondii were carried out with an inverted photomicroscope. The following equation was used for the calculation of the inhibition in %:Inhibition (%) = (I Control − I Experimental)/(I Control) × 100 where “I Control” refers to the infection index of untreated cells and “I Experimental” refers to the infection index of cells treated with test compounds.
Then, effects of test compounds on parasite growth were expressed as EC50 (effective concentration at 50%) values. EC50 values were obtained from three independent experiments.

macrophages = experiment: Effects of test compounds on macrophages (toxicity); format: cell-based, BALB/c mice; conditions: means of n = 3, SD ± 15%

SMILES | IC50 (Vero cells) [µM] | EC50 ([1]; Leishmania major, 72 h) [µM] | EC50 ([2]; Leishmania major, 72 h) [µM] | EC50 (Toxoplasma gondii) [µM] | IC50 (macrophages; Mus musculus, Macrophage) [µM] | melting point | EC50 [1] [µM] | EC50 [2] [µM] | IC50 (macrophages) [µM]
C[C@@H]1[C@H](O)[C@@H](C)/C=C/C=C/C=C/C=C/C=C/C=C/C=C/[C@H](O[C@@H]2O[C@H](C)[C@@H](O)[C@H](N)[C@@H]2O)C[C@@H]2O[C@](O)(C[C@@H](O)C[C@@H](O)[C@H](O)CC[C@@H](O)C[C@@H](O)CC(=O)O[C@H]1C)C[C@H](O)[C@H]2C(=O)O [AmB, Amphotericin B, reference compound] | 7.7 | 0.83 | 0.47 | – | – | – | – | – | –
N#CC1=C(N)n2c(nc3ccccc32)NC1c1cc(F)cc(F)c1 (centres unmarked) [Compound 2b, 4-Amino-2-(3,5-difluorophenyl)-1,2-dihydropyrimido[1,2-a]benzimidazole-3-carbonitrile] | 33.1 | 108 | 22.9 | 43.6 | 28.5 | 279 to 280 °C | – | – | –
N#Cc1c(-c2ccccc2F)nc2nc3ccccc3n2c1N [Compound 3c, 4-Amino-2-(2-fluorophenyl)pyrimido[1,2-a]benzimidazole-3-carbonitrile] | 25.7 | 32 | 27 | 20.8 | 21.1 | > 350 °C (dec.) | – | – | –
N#CC1=C(N)n2c(nc3ccccc32)NC1c1cccnc1 (centres unmarked) [Compound 2f, 4-Amino-2-(3-pyridyl)-1,2-dihydropyrimido[1,2-a]benzimidazole-3-carbonitrile] | 106 | 53.4 | 116 | 60 | 86 | 289 to 290 °C | – | – | –
N#Cc1c(-c2cccc(F)c2)nc2nc3ccccc3n2c1N [Compound 3a, 4-Amino-2-(3-fluorophenyl)pyrimido[1,2-a]benzimidazole-3-carbonitrile] | 38.3 | 35.6 | 28 | 35.9 | 22.4 | > 370 °C (dec.) | – | – | –
N#CC1=C(N)n2c(nc3ccccc32)NC1c1cccc(F)c1 (centres unmarked) [Compound 2a, 4-Amino-2-(3-fluorophenyl)-1,2-dihydropyrimido[1,2-a]benzimidazole-3-carbonitrile] | 4.32 | 0.2 to 0.4 | 0.2 to 0.4 | 4.59 | 0.98 | 216 to 217 °C (dec.) | 0.39 | 0.2 | –
N#Cc1c(-c2ccc(F)cc2)nc2nc3ccccc3n2c1N [Compound 3d] | 43.5 | 36.9 | 26.1 | 41.9 | 20.1 | – | – | – | –
N#CC1=C(n2cccc2)n2c(nc3ccccc32)NC1c1ccccc1F (centres unmarked) [Compound 4c, 4-Pyrrolo-2-(2-fluorophenyl)-1,2-dihydropyrimido[1,2-a]benzimidazole-3-carbonitrile] | 23.6 | 15.2 | 49.2 | 24.8 | 43.9 | > 240 °C (dec.) | – | – | –
COc1cc(C2Nc3nc4ccccc4n3C(N)=C2C#N)cc(Br)c1OC (centres unmarked) [Compound 2e, 4-Amino-2-(3-bromo-4,5-dimethoxyphenyl)-1,2-dihydropyrimido[1,2-a]benzimidazole-3-carbonitrile] | 57.2 | 77.9 | 75.5 | 28.6 | 64 | 282 to 283 °C | – | – | 63.8
N#CC1=C(N)n2c(nc3ccccc32)NC1c1ccc(F)cc1 (centres unmarked) [Compound 2d] | 26.9 | 14.4 | 26.9 | 27.8 | 19.3 | – | – | – | –
N#Cc1c(-c2cc(F)cc(F)c2)nc2nc3ccccc3n2c1N [Compound 3b, 4-Amino-2-(3,5-difluorophenyl)pyrimido[1,2-a]benzimidazole-3-carbonitrile] | 22.7 | 13.7 | 29 | 2.8 | 24.3 | > 370 °C (dec.) | – | – | –
N#CC1=C(n2cccc2)n2c(nc3ccccc32)NC1c1ccc(F)cc1 (centres unmarked) [Compound 4d, 4-Pyrrolo-2-(4-fluorophenyl)-1,2-dihydropyrimido[1,2-a]benzimidazole-3-carbonitrile] | 41.4 | 32.1 | 51.5 | 34.9 | 47.3 | > 260 °C | – | – | –
N#CC1=C(n2cccc2)n2c(nc3ccccc32)NC1c1cccc(F)c1 (centres unmarked) [Compound 4a, 4-Pyrrolo-2-(3-fluorophenyl)-1,2-dihydropyrimido[1,2-a]benzimidazole-3-carbonitrile] | 34.9 | 20.3 | 50.9 | 33.2 | 41.4 | > 260 °C (dec.) | – | – | –
N#CC1=C(n2cccc2)n2c(nc3ccccc32)NC1c1cc(F)cc(F)c1 (centres unmarked) [Compound 4b, 4-Pyrrolo-2-(3,5-difluorophenyl)-1,2-dihydropyrimido[1,2-a]benzimidazole-3-carbonitrile] | 32.4 | 28.9 | 46.1 | 18.2 | 39.9 | > 240 °C | – | – | –
O=C1C(O)=C([C@H]2CC[C@H](c3ccc(Cl)cc3)CC2)C(=O)c2ccccc21 [ATO, atovaquone, reference compound] | 9.5 | – | – | 0.07 | – | – | – | – | –
N#CC1=C(N)n2c(nc3ccccc32)NC1c1ccccc1F (centres unmarked) [Compound 2c] | 18.3 | 49.8 | 24.9 | 26.9 | 31.4 | – | – | – | –
